In PubChem BioAssay AID1963959 (Molecular Pharmacology Branch, DTP, NCI, 2024):
“And” between values parts separate entries of the source, which are not always exact repeats. Equal entries are not always repeated.

Test system: T-47D spheroids with HUVEC/MSC, viability
Assay: Anticancer human tumor T-47D cell line growth inhibition [PI3K];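 note: spheroids exposed to agents for seven days before reading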;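 for viability, T/C: percent of DMSO vehicle control luminescence so 100% = untreated growth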
Details: for viability, T/C: stronger effect = lower value
In short: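 Targeted small molecules plus PI3K inhibitors, half-log dose series from Cmax (default top 10 microM), were applied to heterotypic spheroids of cancer cells with HUVEC and MSCs. Viability indicated growth inhibition.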

[1] = curve of first compound, second compound 0.0316 µM
[2] = curve of first compound, second compound 0.1 µM
[3] = curve of first compound, second compound 0.316 µM
[4] = curve of first compound, second compound 1 µM
[5] = curve of first compound, second compound 3.16 µM
[6] = curve of first compound, second compound 10 µM
[7] = second compound 0.0316 µM, first compound 0.0316 µM
[8] = second compound 0.0316 µM, first compound 0.1 µM
[9] = second compound 0.0316 µM, first compound 0.316 µM
[10] = second compound 0.0316 µM, first compound 1 µM
[11] = second compound 0.0316 µM, first compound 3.16 µM
[12] = second compound 0.0316 µM, first compound 10 µM
[13] = second compound 0.1 µM, first compound 0.0316 µM
[14] = second compound 0.1 µM, first compound 0.1 µM
[15] = second compound 0.1 µM, first compound 0.316 µM
[16] = second compound 0.1 µM, first compound 1 µM
[17] = second compound 0.1 µM, first compound 3.16 µM
[18] = second compound 0.1 µM, first compound 10 µM
[19] = second compound 0.316 µM, first compound 0.0316 µM
[20] = second compound 0.316 µM, first compound 0.1 µM
[21] = second compound 0.316 µM, first compound 0.316 µM
[22] = second compound 0.316 µM, first compound 1 µM
[23] = second compound 0.316 µM, first compound 3.16 µM
[24] = second compound 0.316 µM, first compound 10 µM
[25] = second compound 1 µM, first compound 0.0316 µM
[26] = second compound 1 µM, first compound 0.1 µM
[27] = second compound 1 µM, first compound 0.316 µM
[28] = second compound 1 µM, first compound 1 µM
[29] = second compound 1 µM, first compound 3.16 µM
[30] = second compound 1 µM, first compound 10 µM
[31] = second compound 3.16 µM, first compound 0.0316 µM
[32] = second compound 3.16 µM, first compound 0.1 µM
[33] = second compound 10 µM, first compound 0.0316 µM
[34] = second compound 10 µM, first compound 0.1 µM

SMILES: C[C@@H](NC(=O)c1ncnc(N)c1Cl)c1ncc(C(=O)Nc2cc(C(F)(F)F)c(Cl)cn2)s1 + CC(Nc1ncnc2nc[nH]c12)c1cc2cccc(Cl)c2c(=O)n1-c1ccccc1
- IC50 [1]: > 10 µM
- IC50 [2]: > 10 µM
- IC50 [3]: > 10 µM
- IC50 [4]: > 10 µM
- IC50 [5]: > 10 µM
- IC50 [6]: > 10 µM
- viability, T/C [7]: 75.3%
- viability, T/C [8]: 88.3%
- viability, T/C [9]: 83.8%
- viability, T/C [10]: 89.1%
- viability, T/C [11]: 108%
- viability, T/C [12]: 92.5%
- viability, T/C [13]: 106%
- viability, T/C [14]: 90.2%
- viability, T/C [15]: 86%
- viability, T/C [16]: 84.3%
- viability, T/C [17]: 89.9%
- viability, T/C [18]: 90.9%
- viability, T/C [19]: 94.8%
- viability, T/C [20]: 93.2%
- viability, T/C [21]: 90.3%
- viability, T/C [22]: 84%
- viability, T/C [23]: 84.7%
- viability, T/C [24]: 100%
- viability, T/C [25]: 80.2%
- viability, T/C [26]: 105%
- viability, T/C [27]: 80.9%
- viability, T/C [28]: 89.2%
- viability, T/C [29]: 85.8%
- viability, T/C [30]: 90%
- viability, T/C [31]: 72.2%
- viability, T/C [32]: 91.2%
- viability, T/C (second compound 3.16 µM, first compound 0.316 µM): 97.4%
- viability, T/C (second compound 3.16 µM, first compound 1 µM): 98.8%
- viability, T/C (second compound 3.16 µM, first compound 3.16 µM): 82%
- viability, T/C (second compound 3.16 µM, first compound 10 µM): 80.7%
- viability, T/C [33]: 105%
- viability, T/C [34]: 82.1%
- viability, T/C (second compound 10 µM, first compound 0.316 µM): 103%
- viability, T/C (second compound 10 µM, first compound 1 µM): 84.1%
- viability, T/C (second compound 10 µM, first compound 3.16 µM): 86.3%
- viability, T/C (second compound 10 µM, first compound 10 µM): 88.8%

SMILES: CC(=O)c1c(C)c2cnc(Nc3ccc(N4CCNCC4)cn3)nc2n(C2CCCC2)c1=O + CC(Nc1ncnc2nc[nH]c12)c1cc2cccc(Cl)c2c(=O)n1-c1ccccc1
- IC50 [1]: > 0.1 µM
- IC50 [2]: > 0.1 µM
- IC50 [3]: > 0.1 µM
- IC50 [4]: > 0.1 µM
- IC50 [5]: > 0.1 µM
- IC50 [6]: > 0.1 µM
- viability, T/C (second compound 0.0316 µM, first compound 0.000316 µM): 96%
- viability, T/C (second compound 0.0316 µM, first compound 0.001 µM): 99%
- viability, T/C (second compound 0.0316 µM, first compound 0.00316 µM): 100%
- viability, T/C (second compound 0.0316 µM, first compound 0.01 µM): 91.2%
- viability, T/C [7]: 86.5%
- viability, T/C [8]: 71.3%
- viability, T/C (second compound 0.1 µM, first compound 0.000316 µM): 91.2%
- viability, T/C (second compound 0.1 µM, first compound 0.001 µM): 90.2%
- viability, T/C (second compound 0.1 µM, first compound 0.00316 µM): 96.1%
- viability, T/C (second compound 0.1 µM, first compound 0.01 µM): 73.3%
- viability, T/C [13]: 100%
- viability, T/C [14]: 83.6%
- viability, T/C (second compound 0.316 µM, first compound 0.000316 µM): 92.8%
- viability, T/C (second compound 0.316 µM, first compound 0.001 µM): 93.7%
- viability, T/C (second compound 0.316 µM, first compound 0.00316 µM): 82%
- viability, T/C (second compound 0.316 µM, first compound 0.01 µM): 90.6%
- viability, T/C [19]: 86.9%
- viability, T/C [20]: 84%
- viability, T/C (second compound 1 µM, first compound 0.000316 µM): 80.1%
- viability, T/C (second compound 1 µM, first compound 0.001 µM): 73.8%
- viability, T/C (second compound 1 µM, first compound 0.00316 µM): 79.6%
- viability, T/C (second compound 1 µM, first compound 0.01 µM): 89%
- viability, T/C [25]: 76.6%
- viability, T/C [26]: 80.6%
- viability, T/C (second compound 3.16 µM, first compound 0.000316 µM): 81.2%
- viability, T/C (second compound 3.16 µM, first compound 0.001 µM): 88.6%
- viability, T/C (second compound 3.16 µM, first compound 0.00316 µM): 100%
- viability, T/C (second compound 3.16 µM, first compound 0.01 µM): 85.1%
- viability, T/C [31]: 85.8%
- viability, T/C [32]: 69.8%
- viability, T/C (second compound 10 µM, first compound 0.000316 µM): 88.4%
- viability, T/C (second compound 10 µM, first compound 0.001 µM): 76.3%
- viability, T/C (second compound 10 µM, first compound 0.00316 µM): 78%
- viability, T/C (second compound 10 µM, first compound 0.01 µM): 70.8%
- viability, T/C [33]: 80.6%
- viability, T/C [34]: 65.2%

SMILES: CNC(=O)c1ccc(N2C(=S)N(c3ccc(C#N)c(C(F)(F)F)c3)C(=O)C2(C)C)cc1F + CC(Nc1ccc2c(c1)OCCn1cc(N3C(=O)OCC3C(F)F)nc1-2)C(N)=O
- IC50 (curve of first compound, second compound 0.00316 µM): > 10 µM
- IC50 (curve of first compound, second compound 0.01 µM): > 10 µM
- IC50 [1]: > 10 µM
- IC50 [2]: > 10 µM
- IC50 [3]: > 10 µM
- IC50 [4]: > 10 µM
- viability, T/C (second compound 0.00316 µM, first compound 0.0316 µM): 120%
- viability, T/C (second compound 0.00316 µM, first compound 0.1 µM): 98.2%
- viability, T/C (second compound 0.00316 µM, first compound 0.316 µM): 104%
- viability, T/C (second compound 0.00316 µM, first compound 1 µM): 81.5%
- viability, T/C (second compound 0.00316 µM, first compound 3.16 µM): 104%
- viability, T/C (second compound 0.00316 µM, first compound 10 µM): 88.3%
- viability, T/C (second compound 0.01 µM, first compound 0.0316 µM): 105%
- viability, T/C (second compound 0.01 µM, first compound 0.1 µM): 91.5%
- viability, T/C (second compound 0.01 µM, first compound 0.316 µM): 88.2%
- viability, T/C (second compound 0.01 µM, first compound 1 µM): 82.3%
- viability, T/C (second compound 0.01 µM, first compound 3.16 µM): 91.2%
- viability, T/C (second compound 0.01 µM, first compound 10 µM): 95.5%
- viability, T/C [7]: 103%
- viability, T/C [8]: 95%
- viability, T/C [9]: 87.1%
- viability, T/C [10]: 77.2%
- viability, T/C [11]: 91.2%
- viability, T/C [12]: 90.9%
- viability, T/C [13]: 94.7%
- viability, T/C [14]: 82.2%
- viability, T/C [15]: 99.7%
- viability, T/C [16]: 86.7%
- viability, T/C [17]: 90.2%
- viability, T/C [18]: 72.5%
- viability, T/C [19]: 71.9%
- viability, T/C [20]: 79%
- viability, T/C [21]: 75.2%
- viability, T/C [22]: 71%
- viability, T/C [23]: 64.3%
- viability, T/C [24]: 60.6%
- viability, T/C [25]: 61%
- viability, T/C [26]: 68%
- viability, T/C [27]: 58.8%
- viability, T/C [28]: 60.4%
- viability, T/C [29]: 56.2%
- viability, T/C [30]: 48.8%

SMILES: C=CC(=O)N1CCN(c2nc(=O)n(-c3c(C)ccnc3C(C)C)c3nc(-c4c(O)cccc4F)c(F)cc23)C(C)C1 (stereo not given)
- viability, T/C (compound 0.0316 µM): 94.8% (2×) and 125% and 115%
- viability, T/C (compound 0.1 µM): 96.8% [middle of 4 runs]
- viability, T/C (compound 1 µM): 98.7% and 126% (2×) and 94.5%
- IC50 (curve of compound): > 10 µM
